# According to article PMC11219871, “Epigenetic-based differentiation therapy for Acute Myeloid Leukemia” (Nature Communications, 2024):
# “And” between values parts separate entries of the source, which are not always exact repeats. Identical values can stand only once.
# Tests used:
# [1] = test system: MOLM-13; assay: Differentiation-apoptosis assay, CD11b / annexin-V / Sytox Green / myeloid markers flow cytometry; format: cell-based, human; design: Cell viability (%): concentration or dose not given beside the values; CD11b levels: unit not given here
# How it was run: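 Differentiation and apoptosis were read by flow cytometry after 15 min dark staining at room temperature with APC-CD11b plus FITC annexin-V, 1 × 10^6 cells/mL in binding buffer. Myeloid markers CD13, HLA-DR and CD14 were stained in separate runs for 30 min, followed by lysis and washing.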
# [2] = test system: primary AML patient samples; assay: Differentiation assay, CD11b flow cytometry in primary samples; format: cell-based, human; conditions: for CD11b-positive cells (%): daily 48 h
# Procedure: (§1) Next, the cells were washed twice with phosphate-buffered saline (PBS) and resuspended in 1X Binding Buffer at a concentration of 1 × 10^6 cells/mL. An 8-µL aliquot of APC-CD11b (BD Pharmingen, Franklin Lakes, NJ, USA) and 1 µL of FITC annexin-V (AV) (BD Pharmingen, Franklin Lakes, NJ, USA) antibodies were added and incubated for 15 min at room temperature in the dark. Finally, after the addition of 400 µL of 1X Binding Buffer to each tube, samples were collected on a BD FACSCanto flow cytometer (Becton Dickinson, San Jose, CA, USA) and analyzed using FlowJo software.
# Peripheral blood (PB) specimens were obtained from preliminarily diagnosed AML patients who had not received any treatment before specimens were collected. All patients gave informed consent for their participation in this study, which was approved by the Clinical Research Ethics Committee of Clínica Universidad de Navarra. Written informed consent was obtained from each participant. PB was mixed with an ammonium chloride-potassium (ACK) buffer lysis (0.15 mol/L NH4Cl, 10 mmol/L KHCO3, 0.1 mmol/L ethylenediaminetetraacetic acid, pH 7.2) at a 1:2 volume ratio by gentle inversion, incubated for 10 min and centrifuged at 200 g for 10 min. The cell pellet was washed twice with PBS and finally resuspended in EGM2 medium (Cambrex Bioscience, Walkersville, MD). EGM2 contains 2% fetal calf serum, hydrocortisone, heparin, antibiotics, epidermal growth factor, human fibroblast growth factor, insulin-like growth factor, vascular endothelial growth factor, and ascorbic acid. The cells were plated at 1 × 10^6 cells/mL and treated daily with 200 and 500 nM of CM-444 and CM-1758 for 48 h. Next, the differentiation assay was performed as described above.
# [3] = test system: ML-2; assay: Differentiation-apoptosis assay, CD11b / annexin-V / Sytox Green / myeloid markers flow cytometry; format: cell-based, human; design: Cell viability: concentration or dose not given beside the values; CD11b levels: unit not given here
# Procedure: as §1
# For the rest of experiments, the mix of antibodies (2 µL of BV786-CD13, Cat No, 744748 BD; 1 µL of diluted 1:10 antibody of PB-HLADR, Cat No 307633, Biolegend; 5 µL of APCH7-CD14, Cat No 641394, BD) was added to 10 µL of Brilliant Stain Buffer Plus (Becton Dickinson, San Jose, CA, USA). Then, 1 million cells (volume of 250 µL) were added and incubated for 30 min at room temperature in darkness. After 10 min incubation at room temperature with 2 mL of FACSLysing 1X, cells were centrifuged at 540 g for 5 min and washed twice with FACSBuffer. Finally, after centrifugation at 540 g for 5 min cells were resuspended in FACSBuffer.
# [4] = test system: TF-1; assay: Differentiation assay, CD11b / annexin-V flow cytometry; format: cell-based; conditions: TF-1 cell line; replicates 1-3 (Figure 2A);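 further: daily treatment at a GI50-based fraction of each compound's GI50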
# Procedure: as §1
# [5] = test system: HEL; assay: as above; format: cell-based; conditions: HEL cell line; replicates 1-3 (Figure 2A)
# Procedure: as §1
# [6] = test system: OCI-AML2; assay: as above; format: cell-based; conditions: OCI-AML-2 cell line; replicates 1-3 (Figure 2A)
# Procedure: as §1
# [7] = test system: M-O7e; assay: as above; format: cell-based; conditions: MO7e cell line; replicates 1-3 (Figure 2A);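 further: daily treatment at a GI50-based fraction of each compound's GI50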
# Procedure: as §1
# [8] = test system: THP-1; assay: as above; format: cell-based; conditions: THP-1 cell line; replicates 1-3 (Figure 2A)
# Procedure: as §1
# [9] = test system: KASUMI-1; assay: as above; format: cell-based; conditions: KASUMI-1 cell line; replicates 1-3 (Figure 2A);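 further: daily treatment at a GI50-based fraction of each compound's GI50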
# Procedure: as §1
# [10] = test system: UT-7; assay: as above; format: cell-based; conditions: UT7 cell line; replicates 1-3 (Figure 2A)
# Procedure: as §1
# [11] = test system: NB-4; assay: as above; format: cell-based; conditions: NB4 cell line; replicates 1-3 (Figure 2A)
# Procedure: as §1
# [12] = test system: GF-D8; assay: as above; format: cell-based; conditions: GF-D8 cell line; replicates 1-3 (Figure 2A);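 further: daily treatment at a GI50-based fraction of each compound's GI50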
# Procedure: as §1
# [13] = test system: MONO-MAC-6; assay: as above; format: cell-based; conditions: MONOMAC-6 cell line; replicates 1-3 (Figure 2A)
# Procedure: as §1
# [14] = test system: OCI-AML3; assay: as above; format: cell-based; conditions: OCI-AML-3 cell line; replicates 1-3 (Figure 2A)
# Procedure: as §1
# [15] = MOLM-13, 48 h treatment, replicates 1-3 (Suppl. Fig. 5A)
# [16] = MOLM-13, daily treatment, time 0 days
# [17] = MOLM-13, daily treatment, time 2 days
# [18] = MOLM-13, daily treatment, time 4 days
# [19] = MOLM-13, daily treatment, time 6 days
# [20] = MOLM-13, daily treatment, time 8 days
# [21] = ML-2, 48 h, replicates (Fig 4A)
# [22] = ML-2, daily treatment, time 0 days, replicates 1-3 (Figure 2B)
# [23] = ML-2, daily treatment, time 2 days, replicates 1-3 (Figure 2B)
# [24] = ML-2, daily treatment, time 4 days, replicates 1-3 (Figure 2B)
# [25] = ML-2, daily treatment, time 6 days, replicates 1-3 (Figure 2B)
# [26] = ML-2, daily treatment, time 8 days, replicates 1-3 (Figure 2B)
structure (smiles),measurement,setting,value
"COc1cc2nc(-c3ccc(C)o3)cc(NCC3CCN(c4ncc(C(=O)NO)cn4)CC3)c2cc1OC [CM-444, 2-[4-[[[6,7-dimethoxy-2-(5-methyl-2-furyl)-4-quinolyl]amino]methyl]-1-piperidyl]pyrimidine-5-carbohydroxamic acid]",CD11b (%),"[1]; MOLM-13, 48 h",92.8%
same,CD13 (%),"[1]; MOLM-13, 48 h",49.3%
same,CD14 (%),"[1]; MOLM-13, 48 h",66.5%
same,HLA-DR (%),"[1]; MOLM-13, 48 h",35.1%
same,CD11b (%),[1]; [15],94.2% and 88.9% and 85.7%
same,Cell viability (%),[1]; [15],70.2% and 63.7% and 70.7%
same,differentiation level (CD11b),"[1]; MOLM-13, after 6–8 days of treatment",~90%
same,CD11b levels,"[1]; MOLM-13, daily treatment for 48 h, replicates 1-3 (Suppl. Fig. 9A)",43.6 and 50.7 and 40.2
same,Annexin-V (%),[1]; [16],4.46% and 6.55% and 4.89%
same,CD11b (%),[1]; [16],6.62% and 4.5% and 6.9%
same,Annexin-V (%),[1]; [17],24.6% and 15.6% and 17.4%
same,CD11b (%),[1]; [17],63% and 58.9% and 57.2%
same,Annexin-V (%),[1]; [18],66.7% and 40.3% and 35.6%
same,CD11b (%),[1]; [18],60% and 65.3% and 63.1%
same,Annexin-V (%),[1]; [19],72.2% and 50.7% and 45.3%
same,CD11b (%),[1]; [19],66.7% and 70.8% and 65.2%
same,Annexin-V (%),[1]; [20],68.1% and 55.1% and 49.2%
same,CD11b (%),[1]; [20],68.9% and 75.7% and 73.6%
same,CD11b (%),"[1]; MOLM-13 cell line, replicates 1-3 (Figure 2A)",73.8% and 63.3% and 68.4%
same,CD11b (%),[2]; primary AML patient sample 1 (Figure 2C),46.62%
same,CD11b (%),[2]; primary AML patient sample 2 (Figure 2C),31.74%
same,CD11b (%),[2]; primary AML patient sample 3 (Figure 2C),20.47%
same,CD11b (%),[2]; primary AML patient sample 4 (Figure 2C),39.54%
same,CD11b (%),[2]; primary AML patient sample 5 (Figure 2C),32.14%
same,CD11b (%),[2]; primary AML patient sample 6 (Figure 2C),38.57%
same,CD11b (%),[2]; primary AML patient sample 7 (Figure 2C),49.19%
same,CD11b (%),[2]; primary AML patient sample 8 (Figure 2C),23.69%
same,CD11b-positive cells (%),"[2]; sample AML-1, 200 nM",35.2%
same,CD11b-positive cells (%),"[2]; sample AML-1, 500 nM",46.6%
same,CD11b-positive cells (%),"[2]; sample AML-2, 200 nM",16.8%
same,CD11b-positive cells (%),"[2]; sample AML-2, 500 nM",31.7%
same,CD11b-positive cells (%),"[2]; sample AML-3, 200 nM",12.3%
same,CD11b-positive cells (%),"[2]; sample AML-3, 500 nM",20.5%
same,CD11b-positive cells (%),"[2]; sample AML-4, 200 nM",20.8%
same,CD11b-positive cells (%),"[2]; sample AML-4, 500 nM",39.5%
same,CD11b-positive cells (%),"[2]; sample AML-5, 200 nM",20.2%
same,CD11b-positive cells (%),"[2]; sample AML-5, 500 nM",32.1%
same,CD11b-positive cells (%),"[2]; sample AML-6, 200 nM",29.7%
same,CD11b-positive cells (%),"[2]; sample AML-6, 500 nM",38.6%
same,CD11b-positive cells (%),"[2]; sample AML-7, 200 nM",32.9%
same,CD11b-positive cells (%),"[2]; sample AML-7, 500 nM",49.2%
same,CD11b-positive cells (%),"[2]; sample AML-8, 200 nM",15.3%
same,CD11b-positive cells (%),"[2]; sample AML-8, 500 nM",23.7%
same,percentage of CD11b,"[3]; ML-2, 260 nM CM-444 or 210 nM CM-1758 daily for 4 days, before injection",> 90%
same,CD11b (%),"[3]; ML-2, 48 h",80.1%
same,CD13 (%),"[3]; ML-2, 48 h",100%
same,CD14 (%),"[3]; ML-2, 48 h",5.20%
same,HLA-DR (%),"[3]; ML-2, 48 h",35.7%
same,CD11b,[3]; [21],89.5% and 75.9% and 74.5%
same,Cell viability,[3]; [21],80.4% and 75.1% and 78.2%
same,differentiation level (CD11b),"[3]; ML-2, after 6–8 days of treatment",~90%
same,Annexin-V (%),[3]; [22],0% and 1.81% and 2.3%
same,CD11b (%),[3]; [22],9.3% and 9.32% and 7.24%
same,Annexin-V (%),[3]; [23],0% and 8.27% and 5.87%
same,CD11b (%),[3]; [23],24.52% and 30.8% and 32.5%
same,Annexin-V (%),[3]; [24],7.16% and 8.18% and 7.5%
same,CD11b (%),[3]; [24],47.58% and 64.3% and 58.4%
same,Annexin-V (%),[3]; [25],12.1% and 4.47% and 9.8%
same,CD11b (%),[3]; [25],89.87% and 81.3% and 87.3%
same,Annexin-V (%),[3]; [26],10.64% and 10.25% and 11.25%
same,CD11b (%),[3]; [26],92.1% and 91.7% and 93.4%
same,CD11b (%),"[3]; ML-2 cell line, replicates 1-3 (Figure 2A)",86.3% and 76.9% and 74.7%
same,CD11b levels,"[3]; ML-2 treated daily for 48 h, replicates (Fig 6E)",70.9 and 75.6 and 72.7
same,CD11b (%),[4],85.3% and 79.1% and 71.7%
same,CD11b (%),[5],12.7% and 10.5% and 8.2%
same,CD11b (%),[6],21.1% and 24.6% and 20.5%
same,CD11b (%),[7],5.2% and 11.2% and 10.9%
same,CD11b (%),[8],99.1% and 93.5% and 92.1%
same,CD11b (%),[9],16.9% and 10.6% and 19.6%
same,CD11b (%),[10],16.8% and 20.4% and 21.0%
same,CD11b (%),[11],46.5% and 38.3% and 33.9%
same,CD11b (%),[12],26.5% and 25.8% and 22.1%
same,CD11b (%),[13],69.4% and 75.8% and 60.6%
same,CD11b (%),[14],36.4% and 23.4% and 30.8%
